Measured values as given in US12636238B2, “Hypochlorous acid-based eyelid cleansers” (OCuSOFT, Inc., priority 2023, dated 2026).
Read-outs that look alike come from different tables or passages of the source. Values belong to the compound of their own block, whether it stands above or below them.

Assay: comparative stability of hypochlorous acid in the presence of various ingredients (free available chlorine, FAC)
Assay type: physicochemical
From the text: Free available chlorine or free active chlorine (FAC) refers to the amount of chlorine that is available to disinfect or kill microorganisms. Importantly, FAC covers many forms of chlorine, such as hypochlorous acid and hypohalite anion, in addition to freely available chlorine. Measurement and quantification of FAC is typically accomplished by a titration or colorimetric method. In certain embodiments, the eyelid cleanser composition contains 10 to 300 ppm of free available chlorine (FAC).
Table 1 illustrates the comparative stability of hypochlorous acid in the presence of various ingredients. The inventors determined that only specific ingredients disclosed in the disclosed embodiments are compatible with hypochlorous acid. For example, after 7 days in solution with sodium laureth sulfate, the FAC concentration decreased by about 4% per day.

[1] = FAC, component 0.01 M, time 2 days
[2] = component tested at 0.01 M in hypochlorous acid solution, start
[3] = component tested at 0.50%, start
[4] = component tested at 0.5%^, start

% change/day (FAC, component 1%, time 3 days): −100%
FAC End (component 1%, time 3 days): 0 ppm
FAC Start (component tested at 1%, start): 3 ppm
degradation of hypochlorous acid (observation) (in the presence of the component): immediate degradation
Compound: CCCCCCCCCCO[C@@H]1O[C@H](CO)[C@@H](O)[C@H](O)[C@H]1O [Decyl Glucoside]

% change/day (FAC, component 1%, time 3 days): −26%
FAC End (component 1%, time 3 days): 23 ppm
FAC Start (component tested at 1%, start): 101 ppm
Compound: CC(C)(CO)C(O)C(=O)NCCCO (centres unmarked) [DI-Panthenol]

% change/day (FAC, component 0.5%^, time 7 days): −4%
FAC concentration decrease (after 7 days in solution): about 4 % per day
FAC End (component 0.5%^, time 7 days): 208 ppm
FAC Start [4]: 287 ppm
Compound: Sodium Laureth Sulfate

% change/day (FAC, component 1%, time 3 days): −11%
FAC End (component 1%, time 3 days): 67 ppm
FAC Start (component tested at 1%, start): 99 ppm
Compound: CC(O)CO (centres unmarked) [Propylene Glycol]

% change/day [1]: 16%
FAC End (component 0.01 M, time 2 days): 331.1 ppm
FAC Start [2]: 250 ppm
Compound: O=P([O-])([O-])O.[Na+].[Na+] [Sodium Dibasic Phosphate]

% change/day (FAC, component 1%, time 3 days): −17%
FAC End (component 1%, time 3 days): 50 ppm
FAC Start (component tested at 1%, start): 102 ppm
Compound: OCC(O)CO [Glycerin]

% change/day [1]: 2%
FAC End (component 0.01 M, time 2 days): 374.4 ppm
FAC Start [2]: 361.4 ppm
Compound: O=P([O-])(O)O.[Na+] [Sodium Monobasic Phosphate]

The remaining lines, values behind:

Compound: O=C([O-])CC(O)(CC(=O)[O-])C(=O)[O-].[Na+].[Na+].[Na+] [Sodium Citrate]
% change/day [1]: −49%
FAC End (component 0.01 M, time 2 days): 2.6 ppm
FAC Start [2]: 125.1 ppm

Compound: Polysorbate 20
% change/day (FAC, component 0.50%, time 2 days): −16%
FAC End (component 0.50%, time 2 days): 264.9 ppm
FAC Start [3]: 391 ppm

Compound: CC(=O)[O-].[Na+] [Sodium Acetate]
% change/day: 2%
FAC End: 377 ppm
FAC Start: 362.1 ppm

Compound: O=C(O)CC(O)(CC(=O)O)C(=O)O [Citric Acid]
% change/day [1]: −49%
FAC End (component 0.01 M, time 2 days): 5.1 ppm
FAC Start [2]: 188.9 ppm

Compound: CCCCCCCCOC(=O)CC(C(=O)OCCCCCCCC)S(=O)(=O)O.[Na] (centres unmarked) [Dioctyl Sulfosuccinate Sodium]
% change/day (FAC, component 0.50%, time 10 days): −6%
% change/day (FAC, component 0.5%^, time 38 days): −1%
FAC End (component 0.50%, time 10 days): 113 ppm
FAC End (component 0.5%^, time 38 days): 194 ppm
FAC Start [3]: 289 ppm
FAC Start [4]: 289 ppm

Compound: CCCCCCCCCCCCOS(=O)(=O)[O-].[Na+] [Sodium Lauryl Sulfate]
% change/day (FAC, component 0.5%^, time 238 days): 0%
FAC End (component 0.5%^, time 238 days): 11 ppm
FAC Start [4]: 267 ppm

Compound: CC(=O)O [Acetic Acid]
% change/day [1]: 2%
FAC End (component 0.01 M, time 2 days): 384.6 ppm
FAC Start [2]: 367.5 ppm
